Reference: ChEMBL document CHEMBL1121434, “4-[(Aminoalkyl)amino]-1,2-dimethoxynaphthalenes as antimalarial agents” (J Med Chem, 1980)
Calls of active or inactive are those of the source. The calls are words filed in the database; no cut-off is given here.

Legend:
[1] = tested on: Monkey; assay: Tested for radical curative activity in monkeys infected with Plasmodium cynomolgi I = inactive; format: functional, organism-based; details: Cercopithecidae
[2] = tested on: Monkey; assay: Tested for radical curative activity in monkeys infected with Plasmodium cynomolgi at 1.0 (mg/kg)/day dose; I = inactive; format: functional, organism-based; details: Cercopithecidae
[3] = tested on: Monkey; assay: Tested for radical curative activity in monkeys infected with Plasmodium cynomolgi at 10.0 (mg/kg)/day dose; C = curative; format: functional, organism-based; details: Cercopithecidae
[4] = tested on: Monkey; assay: Tested for radical curative activity in monkeys infected with Plasmodium cynomolgi at 0.316 (mg/kg)/day dose; I = inactive; format: functional, organism-based; details: Cercopithecidae
[5] = tested on: Monkey; assay: Tested for radical curative activity in monkeys infected with Plasmodium cynomolgi at 1 (mg/kg)/day dose; I = inactive; format: functional, organism-based; details: Cercopithecidae
[6] = tested on: Monkey; assay: Tested for radical curative activity in monkeys infected with Plasmodium cynomolgi at 10 (mg/kg)/day dose; T = toxic; format: organism-based; details: cercopithecidae, in vivo

Question: `CCN(CC)CCCC(C)Nc1cc(OC)c(OC)c2ccccc12` (stereo not drawn) was tested. Which Activity [1] did it give?
Answer: The Activity was “inactive”.

Question: What does the source list for `COc1cc(NCCCC(C)N)c2cc(Br)ccc2c1OC` (stereo not drawn)?
Answer: Activity [2]: inactive; Activity [3]: Curative

Question: Which Activity [2] does the source give for `COc1cc(NCCCC(C)N)c2ccccc2c1OC` (stereo not drawn) here?
Answer: Its Activity is “inactive”.

Question: For `COc1cc(NC(C)CCCN)c2ccccc2c1OC` (stereo not drawn), which Activity [2] is on record?
Answer: Its Activity is “inactive”.

Question: What does the source list for `CCC(CCCN)Nc1cc(OC)c(OC)c2ccccc12` (stereo not drawn)?
Answer: Activity [4]: inactive; Activity [5]: inactive; Activity [6]: Toxic
